Drawing on the OligoGym collection, this text covers remaining target (mRNA or protein) (fraction of control) for 58 sequences.

These antisense oligonucleotides have a phosphorothioate backbone; sugars and methylation of C are not fully specified.
Also: test concentration or dose not given here.

This data set has as its target E2F1. The note with it: ASO.
CCACTCACCTCTCCCATCTC displayed a remaining target (mRNA or protein) (fraction of control) of 0.72.

As to CCCATGGCTGTCAGTCAGTC, the remaining target (mRNA or protein) (fraction of control) was at least 1. With CCGCTGCCTGCAAAGTCCCG the figure was 0.92; with CCTCGGCGAGGGCTCGATCC, 0.8; with CGAGCAGGGCCTCCAGCGCC, 0.9. The same measure for CGATCGGGCCTTGTTTGCTC: 0.72; for CGCAGCTGCGTAGTACAGAT: at least 1; for CGCGGCGGAGATGATGACGA: at least 1.

CGGCGGGCGGCCGAGCGCGG: the remaining target (mRNA or protein) (fraction of control) was found to be 0.83. The same measure for CTCAGAAGTGACCTCCTGGG: 0.73; for CTCCCTCACTTTCCCAATAA: 0.71; for CTGCAATGCTACGAAGGTCC: 0.26.

Sequence CTTCATTCCCCGGTACATGC came in with a remaining target (mRNA or protein) (fraction of control) of 0.72. The same measure for GAACTCCTCAGGGAGGAGGC: 0.59; for GACCACAGGGTCTGGGCTGG: 0.62. The same measure for GAGGAGGCCGGAGAAGTCCT: 0.75. With GAGGCCTCGATAAATAAATA the figure was 0.94; with GAGTCGGCCGCCACCAGCGG, 0.27; with GATTCTGGGAGCAGGCACTG, 0.79. As for GCAGGCGCTTCAGACACTGC, the remaining target (mRNA or protein) (fraction of control) is 0.3. With GCCACTGGATGTGGTTCTTG the figure was 0.94. With GCCAGGCGCTGGCTGTCAGT the figure was 0.69.

For the sequence GCCCACTGCTCTCGGCCAGG, the remaining target (mRNA or protein) (fraction of control) came out at 0.4. Take GCCGACGCCCACTGTGGTGT: the remaining target (mRNA or protein) (fraction of control) was found to be 0.45. With GCCTTGTGGGACCCCACGAG the figure was 0.83. The same measure for GCGGCCCGGGTGACAGGCGG: 0.32; for GCTCCAGGCTGAGTAGAGAC: 0.73; for GGACTCATGCACACACATGT: 0.16. With GGACTTCTTGGCAATGAGCT the figure was 0.65. GGAGGACGGCCAGGGACAGG registered a remaining target (mRNA or protein) (fraction of control) of 0.7. Consider GGCCATGACGCTCACGGCCC, for which the remaining target (mRNA or protein) (fraction of control) was found to be 0.76.

On to GGCCGAAAGTGCAGTTAGAG, for which the remaining target (mRNA or protein) (fraction of control) is at least 1. As for GGCCGCGGCGCACTGGGTGT, the remaining target (mRNA or protein) (fraction of control) stood at 0.79. With GGCTGCCCATCCGGGACAAC the figure was 0.53; with GGCTTGCTCAGCCTCCTAGC, 0.17. For the sequence GGGAGATGATGGTGGTGGTG, the remaining target (mRNA or protein) (fraction of control) is at least 1. GGGCCGGTGGGAGCCGGCGG gave a remaining target (mRNA or protein) (fraction of control) of 0.37. The same measure for GGTATAAATTAAATGTTTCC: 0.62; for GGTCCAGCCTCCGCTTCACC: 0.36. The same measure for GGTCCCTCCAAGCCCTGTCA: 0.2; for GGTCCTGGGTCAACCCCTCA: 0.62. The same measure for GTGACACTATGGTGGCAGAG: 0.75; for GTGGTCAGATTCAGTGAGGT: 0.43; for GTGTGGGTGTAGGCTGCATG: 0.76. Regarding TACTCTGGAAACCCTGGTCC, the remaining target (mRNA or protein) (fraction of control) is 0.75. The same measure for TAGCCAGACCCCAGAGCTAG: 0.46; for TATTAAAACCAAAGCAGGAG: 0.69; for TCAGCCGAGTGGCTCAGCAG: 0.91.

TCCTGCAGCTGTCGGAGGTC returned a remaining target (mRNA or protein) (fraction of control) of 0.8.

In the case of TCTGCGAGGAGTCGAGCAGC, the remaining target (mRNA or protein) (fraction of control) was 0.79.

TGAAAGTTCTCCGAAGAGTC registered a remaining target (mRNA or protein) (fraction of control) of 0.56. With TGCACACACAGAGGTGTATG the figure was 0.27; with TGGAGAGGGCCCACCCCACC, 0.62. With TGGCAGAGTCAGTGGCCCTG the figure was 0.94; with TGTTAGGAAGCAAATCAAAG, 0.74. Take TTGCTGATTCCCCAGGCTCA: the remaining target (mRNA or protein) (fraction of control) amounted to 0.36. With TTTAACGTCATCAAAATATT the figure was 0.93; with TTTGATCACCATAACCATCT, 0.08.
